Results from article PMC9400670, “Establishing the selective phospholipid membrane coordination, permeation and lysis properties for a series of ‘druggable’ supramolecular self-associating antimicrobial amphiphiles” (Chemical Science, 2022).
Like-named read-outs stand apart in the source and are kept apart here.

Columns and labels:
[1] = Mouse i.v. blood pharmacokinetic study; type: in vivo, female CD-1 mice; settings: for enterohepatic recirculation: blood concentration-time profile, in words; for clearance: female, CD-1, mouse, 1 mg/kg, read-out: Cl blood; for clearance / Vd: SSA 3 derived based on AUC0–7h; for Cmax: 2% DMSO/98% H2O
Method: Within these studies SSAs 3 and 5 were dosed at 1 mg kg^−1, to female CD-1 mice (n = 9 per SSA) via an intravenous tail vein bolus dose formulation as solutions in 2% DMSO/98% water. Blood taken from the mouse tail vein was extracted by protein precipitation and SSA concentration calculated. The results of these studies are shown in Fig. 12 and Table 4. page 8: For the purpose of fu and SSA-3 PK determination, samples were analysed using a Waters I-Class ultra-high-performance liquid chromatography (UHPLC) system coupled to a Waters Xevo TQ-XS mass spectrometer. Separation of analytes was achieved using an Accucore Vanquish C18+ column (1.5 µm, 50 x 2.1 mm) at a temperature of 40°C and a binary mobile phase gradient at a flow rate of 0.4 mL/min. Initial LC conditions comprised 66% solvent A (0.1% formic acid + 5 mM ammonium acetate in water), 33% solvent B (0.1% formic acid + 5 mM ammonium acetate in methanol); this was ramped to 63% B at 1.8 min and 95% B at 1.9 min, held for 0.5 min and then immediately returned to initial conditions and held for the remaining 0.5 min of the method. Sample analysis was by electrospray ionisation combined with multiple reaction monitoring in negative ion mode. The capillary voltage was 0.8 kV, desolvation gas was 600°C. For the purpose of apparent permeability determination, samples were analysed using a Waters I- Class ultra-high-performance liquid chromatography (UHPLC) system coupled to a Waters Vion mass spectrometer (Waters, Elstree, UK). Separation of analytes was achieved used an Accucore Vanquish C18+ column (1.5 µm, 50 x 2.1 mm) at a temperature of 40°C and a binary mobile phase gradient at a flow rate of 0.4 mL/min. Initial LC conditions for SSA 1-4 comprised 66% solvent A (0.1% formic acid + 5 mM ammonium acetate in water), 33% solvent B (0.1% formic acid + 5 mM ammonium acetate in methanol); this was ramped to 63% B at 1.8 min and 95% B at 1.9 min, held for 0.5 min and then immediately returned to initial conditions and held for the remaining 0.5 min of the method. Initial LC conditions for SSA 5-10 comprised 54% solvent A (0.1% formic acid + 5 mM ammonium acetate in water), 46% solvent B (0.1% formic acid + 5 mM ammonium acetate in methanol); this was ramped to 67% B at 1.8 min and 95% B at 1.9 min, held for 0.5 min and then immediately returned to initial conditions and held for the remaining 0.5 min of the method. Sample analysis was by electrospray ionisation in negative ion mode. The capillary voltage was 2.5 kV, desolvation gas was 600°C. For the purpose of PK determination of SSA 5, samples were analysed using a Waters I-Class ultra- high-performance liquid chromatography (UHPLC) system coupled to a Waters Xevo TQ-XS mass spectrometer. Separation of analytes was achieved using an Accucore Vanquish C18+ column (1.5 µm, 50 x 2.1 mm) at a temperature of 40°C and a binary mobile phase gradient at a flow rate of 0.4 mL/min. Initial LC conditions comprised 54% solvent A (0.1% formic acid + 5 mM ammonium acetate in water), 46% solvent B (0.1% formic acid + 5 mM ammonium acetate in methanol); this was ramped to 67% B at 1.8 min and 95% B at 1.9 min, held for 0.5 min and then immediately returned to initial conditions and held for the remaining 0.5 min of the method. Sample analysis was by electrospray ionisation combined with multiple reaction monitoring in negative ion mode. The capillary voltage was 0.8 kV, desolvation gas was 600°C. Mean blood concentration-time profile: Within these studies SSAs 3 and 5 were dosed at 1 mg/kg, to female CD-1 mice (n=9 per SSA) via an intravenous tail vein bolus dose formulation as solutions in 2 % DMSO/98 % water. Blood taken from the mouse tail vein was extracted by protein precipitation. SSA concentrations were calculated through UPLC-MS/MS techniques, with tolbutamide as the internal standard. The assay met the acceptance criteria with >7 calibration standards within ± 20% of nominal concentration. The lower limit of quantitation was 2 ng/mL for both compounds. […]

[2] = parameters: method as in PMID 29568426; settings: surface tension; 19 : 1 H2O : EtOH solution at 298 K; unit printed only in Figs S37-S40; cited from earlier work
[3] = Satellite terminal tissue sampling after i.v. dosing; type: in vivo; settings: n = 3 mice; for concentration at 0.5 h / concentration at 4 h: CD-1, mouse, iv, 1 mg kg^−1; for concentration at 0.5 h: 0.5 h post i.v. dosing
Method: Finally, to gain an understanding of the propensity for SSAs 3 and 5 to diffuse from the mouse circulatory system into the mouse tissues, satellite terminal tissue sampling was also performed.

[4] = blood, iv, i.v. 1 mg kg^−1, female CD-1 mice
[5] = i.v. 1 mg kg^−1, female CD-1 mice
[6] = mouse, blood, iv, i.v. 1 mg kg^−1, female CD-1 mice
[7] = mouse, iv, blood, i.v. 1 mg kg^−1, female CD-1 mice
[8] = liver, read-out: Concentration of SSA in liver
[9] = liver, 4.0 h post i.v. dosing, read-out: Concentration of SSA in liver
[10] = lung, read-out: Concentration of SSA in lung
[11] = muscle, read-out: Concentration of SSA in muscle

Blood concentration of SSA ([1]; 0.5 h post i.v. dosing) [nM] | Blood concentration of SSA ([1]; 4.0 h post i.v. dosing) [nM] | clearance [1, 4] [mL/min/kg] | Cl blood as % liver blood flow (LBF) [1, 5] [% LBF] | half-life ([1]; mouse, blood, iv, elimination half-life, i.v. 1 mg kg^−1, female CD-1 mice) [min] | Vd [1, 6] [L/kg] | Cmax [1, 7] [nM] | AUC(0-inf) [1, 7] [µM·h] | AUC(0-t) [1, 7] [µM·h] | Tmax [1, 7] [min] | Concentration of SSA in lung ([3]; 4.0 h post i.v. dosing) | Concentration of SSA in muscle ([3]; 4.0 h post i.v. dosing) | concentration at 0.5 h [3, 8] [nM] | concentration at 4 h [3, 9] [nM] | concentration at 0.5 h [3, 10] [nM] | concentration at 0.5 h [3, 11] [nM] | concentration at 4 h ([3]; lung, 4.0 h post i.v. dosing, read-out: Concentration of SSA in lung) [nM] | Compound | enterohepatic recirculation ([1]; i.v. 1 mg kg^−1) | CMC [2]
643 | 11 | ~31 | 34 | 42 | 0.9 | 4050 | 1.46 | 1.45 | 4.98 | BLQ | BLQ | 2200 | 429 | 153 | 172 |  | O=C(NCS(=O)(=O)O)Nc1ccccc1-c1nc2ccccc2s1 [SSA 5] | did not show any evidence of enterohepatic recirculation | 9.5 (ref. [38]) mM
 |  |  |  |  |  |  |  |  |  |  |  |  |  |  |  |  | Cc1ccc2nc(-c3ccc(NC(=O)NCS(=O)(=O)O)cc3)sc2c1 [SSA 6] |  | 0.5 (ref. [38]) mM
344 | 99 | 25 | 28 |  | 0.8 | 8090 |  | 2.28 | 4.98 |  | BLQ | 1230 | 206 | 86 | 86 | 18 | O=C(NCS(=O)(=O)O)Nc1ccc(C(F)(F)F)cc1 [SSA 3] | undergoing enterohepatic recirculation | 
